# Data: US20260207623A1, “USE OF ESTETROL IN HEPATICALLY IMPAIRED PATIENTS” (ESTETRA SRL, priority 2022, published 2026)
# Values joined by “and” are separate entries in the source; they are usually repeats but may differ in a detail not shown here. Identical values can stand only once. “Also recorded” adds a separate entry of the source.
# Test system: female subjects with normal hepatic function, mild, moderate or severe hepatic impairment
# Test: Safety and tolerability (TEAEs, clinical laboratory, vital signs, physical examination) after a single oral dose of 20 mg E4 monohydrate in the hepatic impairment study
# Format: in vivo, human
# Description: This was a Phase 1, multi-centre, open-label, PK, and safety study of a single oral dose of 20 mg E4 monohydrate in female subjects with normal hepatic function (Group 1), mild hepatic impairment (Group 2), moderate hepatic impairment (Group 3), and severe hepatic impairment (Group 4), as defined using the Child-Pugh classification at Screening.
# Safety and tolerability assessments consisted of treatment-emergent AEs (TEAEs), clinical laboratory, vital signs, physical examination, and gynecological examination. Assessments were performed in accordance with Table 2 and Table 3 in Section 2.5.1.
# AEs/TEAEs were recorded after signing of the ICF until completion of the follow up visit. Any clinically significant observations in results of clinical laboratory, vital signs, or physical examinations were recorded as AEs.
# A TEAE is defined as any event not present prior to administration of the study drug or any event already present that worsens in either severity or frequency following exposure to the study drug.
# The below listed tests were to be performed by the local laboratories at time points indicated in the Schedule of Assessments (Table 2).
# Systolic and diastolic blood pressure and pulse were recorded after the subject had been resting for at least 5 minutes in the supine position at time points indicated in the Schedule of Assessments (Table 2). These assessments were made using an automated device. Body temperature and respiratory rate were measured subsequently.
# A complete physical examination consisting of a review of all body systems was performed at time points indicated in the Schedule of Assessments (Table 2). A symptom-directed physical examination could be conducted at any time per Investigator's discretion.
# 2.6.2.2 Evaluation of Safety and Tolerability Safety and tolerability were assessed through TEAEs, clinical laboratory, vital signs, and physical examination findings, and any other parameter that was relevant for safety assessment.
# A listing of all individual AEs is provided. Summary tables of TEAEs are presented by system organ class (SOC) based on the MedDRA terminology list (preferred terms): a table containing the number of subjects experiencing AEs by hepatic function, a table containing the number of subjects experiencing SAEs by hepatic function (if applicable), a table by hepatic function and relationship, and a table by hepatic function and severity.
# [1] = Mild (N = 8), single oral dose 20 mg E4
# [2] = Moderate (N = 8), single oral dose 20 mg E4
# [3] = Normal (N = 8), single oral dose 20 mg E4
# [4] = Severe (N = 8), single oral dose 20 mg E4
# [5] = Total (N = 32), single oral dose 20 mg E4
# [6] = all 32 subjects, single oral dose 20 mg E4
# [7] = moderate hepatic impairment group
smiles,measurement,setting,value
"C[C@]12CC[C@@H]3c4ccc(O)cc4CC[C@H]3[C@@H]1[C@@H](O)[C@@H](O)[C@@H]2O [E4, 1,3,5 (10)-estratrien-3,15alpha, 16alpha, 17beta-tetrol]",Subjects by maximum relationship to study drug: Not related,[1],2 (25.0) n (%)
same,Subjects by maximum relationship to study drug: Related,[1],0 n (%)
same,Subjects with TEAEs by maximum severity: Mild,[1],2 (25.0) n (%)
same,Subjects with TEAEs by maximum severity: Moderate,[1],0 n (%)
same,Subjects with at least one AE,[1],2 (25.0) n (%)
same,Subjects with at least one SAE,[1],0 n (%)
same,Subjects with at least one TEAE,[1],2 n (%) and 2 (25.0) n (%)
same,Subjects with at least one TEAE leading to study drug discontinuation,[1],0 n (%)
same,Subjects by maximum relationship to study drug: Not related,[2],3 (37.5) n (%)
same,Subjects by maximum relationship to study drug: Related,[2],1 (12.5) n (%)
same,Subjects with TEAEs by maximum severity: Mild,[2],3 (37.5) n (%)
same,Subjects with TEAEs by maximum severity: Moderate,[2],1 (12.5) n (%)
same,Subjects with at least one AE,[2],4 (50.0) n (%)
same,Subjects with at least one SAE,[2],0 n (%)
same,Subjects with at least one TEAE,[2],4 n (%) and 4 (50.0) n (%)
same,Subjects with at least one TEAE leading to study drug discontinuation,[2],0 n (%)
same,Subjects by maximum relationship to study drug: Not related,[3],2 (25.0) n (%)
same,Subjects by maximum relationship to study drug: Related,[3],0 n (%)
same,Subjects with TEAEs by maximum severity: Mild,[3],0 n (%)
same,Subjects with TEAEs by maximum severity: Moderate,[3],2 (25.0) n (%)
same,Subjects with at least one AE,[3],2 (25.0) n (%)
same,Subjects with at least one SAE,[3],0 n (%)
same,Subjects with at least one TEAE,[3],2 n (%) and 2 (25.0) n (%)
same,Subjects with at least one TEAE leading to study drug discontinuation,[3],0 n (%)
same,Subjects by maximum relationship to study drug: Not related,[4],1 (12.5) n (%)
same,Subjects by maximum relationship to study drug: Related,[4],0 n (%)
same,Subjects with TEAEs by maximum severity: Mild,[4],1 (12.5) n (%)
same,Subjects with TEAEs by maximum severity: Moderate,[4],0 n (%)
same,Subjects with at least one AE,[4],1 (12.5) n (%)
same,Subjects with at least one SAE,[4],0 n (%)
same,Subjects with at least one TEAE,[4],1 n (%) and 1 (12.5) n (%)
same,Subjects with at least one TEAE leading to study drug discontinuation,[4],0 n (%)
same,Subjects by maximum relationship to study drug: Related,[5],1 n (%) and 1 (3.1) n (%)
same,Subjects with TEAEs by maximum severity: Moderate,[5],3 n (%) and 3 (9.4) n (%)
same,Subjects with at least one AE,[5],9 (28.1) n (%)
same,Subjects with at least one SAE,[5],0 n (%)
same,Subjects with at least one TEAE,[5],9 n (%) and 9 (28.1) n (%)
same,Subjects with at least one TEAE leading to study drug discontinuation,[5],0 n (%)
same,subjects reporting TEAE back pain,[6],2 subjects
same,subjects reporting TEAE diarrhea,[6],3 subjects
same,subjects reporting TEAE headache,[6],2 subjects
same,subjects reporting TEAE hypertension,[6],2 subjects
same,"laboratory values, changes and shifts from baseline (hematology, clinical chemistry)",all hepatic function groups,did not show deviations or trends which would raise safety concerns
same,number of TEAEs considered of mild intensity,all subjects,Eleven
same,number of TEAEs considered of moderate intensity,all subjects,4 TEAEs
same,"blood pressure, pulse rate, respiratory rate, body temperature",changes from baseline,showed no trends or clinically relevant changes
same,number of TEAEs considered related to the study drug,"diarrhea, mild intensity, 1 subject in the moderate group",1 TEAE
same,subjects with TEAE hypertension,mild hepatic impairment group,2 subjects
same,subjects reporting TEAE diarrhea,[7],2 subjects
same,subjects reporting TEAE headache,[7],2 subjects
same,subjects reporting TEAE back pain,normal hepatic function group,1 subjects
same,subjects reporting TEAE diarrhea,normal hepatic function group,1 subjects
same,"vital signs, laboratory values, physical examination",overall conclusion,unremarkable
same,subjects reporting TEAE back pain,severe hepatic impairment group,1 subjects
same,"deaths, SAEs, other significant AEs",whole study,"no subjects with SAEs; also recorded: No deaths, SAEs, or other significant AEs occurred"
